These results are taken from ChEMBL document CHEMBL3639094, “Organic compounds” (2014).

The assay concerns the target T1, Cholesteryl ester transfer protein (Homo sapiens, UniProt P11597).
T1 sequence (P11597 whole entry): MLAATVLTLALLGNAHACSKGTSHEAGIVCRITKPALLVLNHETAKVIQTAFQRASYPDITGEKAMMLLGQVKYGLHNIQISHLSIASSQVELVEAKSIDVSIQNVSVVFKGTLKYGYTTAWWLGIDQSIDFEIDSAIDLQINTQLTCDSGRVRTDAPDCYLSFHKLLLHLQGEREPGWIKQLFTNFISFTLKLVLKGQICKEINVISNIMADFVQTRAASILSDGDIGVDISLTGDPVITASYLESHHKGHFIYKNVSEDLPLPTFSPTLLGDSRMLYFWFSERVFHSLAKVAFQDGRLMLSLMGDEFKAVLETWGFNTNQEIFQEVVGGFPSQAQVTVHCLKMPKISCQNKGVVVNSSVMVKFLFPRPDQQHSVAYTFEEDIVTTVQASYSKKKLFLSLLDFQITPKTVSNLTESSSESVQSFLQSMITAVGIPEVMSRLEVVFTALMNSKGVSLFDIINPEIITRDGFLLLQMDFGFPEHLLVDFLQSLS
The assay is described as follows: In Vitro Assay: CETP Activity Kit (#RB-RPAK) was purchased from Roar Biochemical, Inc. (New York, N.Y., USA). To each well of a 96-well NBS half-area plate (costar #3686), 1.2 ng/well of the donor solution, 1 uL of the acceptor solution and 5 uL compound solution diluted in 100% DMSO were added in a 38 uL of buffer containing 10 mM Tris, 150 mM NaCl and 2 mM EDTA, pH 7.4. Then, the plate was sealed with Themowell Sealers (costar #6524) and followed by a mixing on a plate shaker by MICROPLATE MIXER MPX-96 (IWAKI) at power 3 for 10 sec at room temperature. After 10-min incubation at 37C., the reaction was started by adding 5 uL of rhCETP solution (Cardiovascular Target, New York, N.Y., USA) and mixed on the plate shaker for 10 sec, then the fluorescence intensity at 0 min was measured by a ARVO SX (Perkin Elmerr, USA) at excitation wavelength of 465 nm and emission wavelength of 535 nm. After 120 min-incubation at 37C., fluorescence intensity was measured again.

Take `CC[C@@H]1C[C@H](N(Cc2cc(C(F)(F)F)cc(C(F)(F)F)c2)c2ncc(-c3cnn(C)c3)cn2)CN1c1nc(N2CCC(C(=O)O)CC2)ncc1Cl`: the IC50 is 77 nM. This lies in the double-digit nanomolar range.

As for `CC[C@@H]1C[C@H](N(Cc2cc(C(F)(F)F)cc(C(F)(F)F)c2)c2ncc(N3CCOCC3)cn2)CN1c1nc(N2CCC(C(=O)O)CC2)ncc1Cl`, the IC50 was found to be 130 nM.

As to `CC[C@@H]1C[C@H](N(Cc2cc(C(F)(F)F)cc(C(F)(F)F)c2)c2ncc(-c3cnn(C)c3)cn2)CN1C(=O)OC(C)C`, inhibition was half-maximal at 23 nM (IC50).

`CC[C@@H]1C[C@H](N(Cc2cc(C(F)(F)F)cc(C(F)(F)F)c2)c2ncc(-c3cnn(C)c3)cn2)CN1C(=O)OCC1(C)COC1` returned a concentration for half-maximal inhibition (IC50) of 53 nM.
